Laboratory results as given in patent publication US10375956B2, “Herbicidally active 2-(substituted-phenyl)-cyclopentane-1,3-dione compounds and derivatives thereof” (Syngenta Limited, priority 2013, dated 2019).
Read-outs that look alike come from different tables or passages of the source.

Assays:
Type in all cases: in vivo
[1] = tested on: Abutilon theophrasti (ABUTH); assay: Test 1 glasshouse assay, pre-emergence herbicidal activity; conditions: 312 h, visual evaluation after 13 days, read-out: Percentage phytotoxicity ABUTH
Procedure, shortened: (§1)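 Visual percentage damage scores, assessed 13 days after treatment, where 0% means no damage and 100% total plant damage. Unformulated compound in acetone/water (50:50) with 0.5% Tween 20 was sprayed onto pots one day after sowing; glasshouse conditions 24/16° C, 14 hours light, 65% humidity.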

[2] = tested on: Alopecurus myosuroides (ALOMY); assay: as above; conditions: 312 h, visual evaluation after 13 days, read-out: Percentage phytotoxicity ALOMY
Procedure, shortened: as §1

[3] = tested on: Amaranthus retroflexus (AMARE); assay: as above; conditions: 312 h, visual evaluation after 13 days, read-out: Percentage phytotoxicity AMARE
Procedure, shortened: as §1

[4] = tested on: Echinochloa crus-galli (ECHCG); assay: as above; conditions: 312 h, visual evaluation after 13 days, read-out: Percentage phytotoxicity ECHCG
Procedure, shortened: as §1

Setaria faberi (SETFA) = assay: as above; conditions: 312 h, visual evaluation after 13 days, read-out: Percentage phytotoxicity SETFA
Procedure, shortened: as §1

[5] = tested on: Zea mays (ZEAMX, corn/maize); assay: as above; conditions: 312 h, visual evaluation after 13 days, read-out: Percentage phytotoxicity ZEAMX
Procedure, shortened: as §1

[6] = tested on: Alopecurus myosuroides (ALOMY); assay: Test 1 glasshouse assay, post-emergence herbicidal activity; conditions: 312 h, after 13 days, read-out: Percentage phytotoxicity ALOMY
Procedure, shortened: (§2)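 Plants sprayed 8 days after sowing with active ingredient in acetone/water (50:50) containing 0.5% Tween 20, grown in glasshouse at 24/16°C day/night, 14 h light, 65% humidity. Phytotoxicity scored visually after 13 days as percentage damage (100% = total damage; 0% = none).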

[7] = tested on: Echinochloa crus-galli (ECHCG); assay: as above; conditions: 312 h, after 13 days, read-out: Percentage phytotoxicity ECHCG
Procedure, shortened: as §2

[8] = tested on: Beta vulgaris (BEAVA, sugarbeet); assay: Test 2 glasshouse assay (IF50 formulation, X-77), post-emergence herbicidal activity; conditions: 360 h, 15 DAA, visual score, read-out: Post-emergence herbicidal activity (percentage phytotoxicity) BEAVA; for plant injury at 30 g/ha: application rate 30 g/ha; for plant injury at 250 g/ha: application rate 250 g/ha; for plant injury at 125 g/ha: application rate 125 g/ha
Method: (§3) Seeds of a variety of monocotyledonous and dicotyledonous test plants are sown in standard soil in pots. The plants are cultivated for one day (for pre-emergence) or for about 12 days (for post-emergence) under controlled conditions in a glasshouse (warm climate species at 24/18° C., cool climate species at 20/16° C., both at day/night; 16 hours light; 65% humidity).
(§4) An “instant formulation”, known as the “IF50”, containing 50 g/liter (i.e. 5% w/v) of the “technical” (i.e. unformulated) active ingredient is prepared by dissolving the active ingredient in a mixture of organic solvents and emulsifier, details of which are provided in the Table below. This IF50 is then mixed with a small, variable amount of acetone to aid dissolution, before addition of a 0.2% v/v aqueous solution of the adjuvant X-77 (which is a mixture of alkyl aryl polyoxyethylene glycols and free fatty acids in isopropanol, CAS Registry number 11097-66-8), as the aqueous diluent, to form an aqueous spray solution which contains a predetermined concentration of the active ingredient (which varies depending on the application rate of the active ingredient to the plants) and 0.2% v/v of the adjuvant X-77. This aqueous spray solution is then sprayed onto the plants, after one day's cultivation (for pre-emergence), or after about 12 days' cultivation (range=10-13 days) (for post-emergence).
(§5) The test plants are then grown on, in a glasshouse (greenhouse) under controlled conditions (warm climate species at 24/18° C., cool climate species at 20/16° C., both at day/night; 16 hours light; 65% humidity) and are watered twice daily. 15 days after application of the test herbicide (15DAA) (for post-emergence), and 20 days after application of the test herbicide (20DAA) (for pre-emergence), the test plants are evaluated visually, and an assessed percentage phytotoxicity score is given for each herbicidal application on each plant species (with 100%=total damage to plant; 0%=no damage to plant).
(§6) Cool climate crop plants: Triticum aestivum (TRZAW, winter wheat), Brassica napus (BRSNN, rape, also called oilseed rape or rapeseed), Beta vulgaris (BEAVA, sugarbeet). Warm climate crop plants: Glycine max (GLXMA, soybean).

[9] = tested on: Brassica napus (BRSNN, rape); assay: as above; conditions: 360 h, 15 DAA, visual score, read-out: Post-emergence herbicidal activity (percentage phytotoxicity) BRSNN; for plant injury at 30 g/ha: application rate 30 g/ha; for plant injury at 250 g/ha: application rate 250 g/ha; for plant injury at 125 g/ha: application rate 125 g/ha
Method: as §3, §4, §5, §6

[10] = tested on: Glycine max (GLXMA, soybean); assay: as above; conditions: 360 h, 15 DAA, visual score, read-out: Post-emergence herbicidal activity (percentage phytotoxicity) GLXMA; for plant injury at 30 g/ha: application rate 30 g/ha; for plant injury at 250 g/ha: application rate 250 g/ha; for plant injury at 125 g/ha: application rate 125 g/ha
Method: as §3, §4, §5, §6

[11] = tested on: Triticum aestivum (TRZAW, winter wheat); assay: as above; conditions: 360 h, 15 DAA, visual score, read-out: Post-emergence herbicidal activity (percentage phytotoxicity) TRZAW; for plant injury at 30 g/ha: application rate 30 g/ha; for plant injury at 250 g/ha: application rate 250 g/ha; for plant injury at 125 g/ha: application rate 125 g/ha
Method: as §3, §4, §5, §6

[12] = post-emergence (Example 1B Table 1)
[13] = post-emergence (Example 1B Table 2)

Compound | pest or weed control at 250 g/ha [1] [%] | pest or weed control at 250 g/ha [2] [%] | pest or weed control at 250 g/ha [3] [%] | pest or weed control at 250 g/ha [4] [%] | pest or weed control at 250 g/ha (Setaria faberi (SETFA)) [%] | pest or weed control at 250 g/ha [5] [%] | pest or weed control at 30 g/ha [6, 12] [%] | pest or weed control at 250 g/ha [6, 12] [%] | pest or weed control at 30 g/ha [7, 12] [%] | pest or weed control at 250 g/ha [7, 12] [%] | plant injury at 30 g/ha [8] [%] | plant injury at 250 g/ha [8] [%] | plant injury at 30 g/ha [9] [%] | plant injury at 250 g/ha [9] [%] | plant injury at 30 g/ha [10] [%] | plant injury at 250 g/ha [10] [%] | plant injury at 30 g/ha [11] [%] | plant injury at 250 g/ha [11] [%] | pest or weed control at 250 g/ha [6, 13] [%] | pest or weed control at 250 g/ha [7, 13] [%] | also measured
C#CCC1CC(=O)C(c2c(Cl)cc(-c3ccc(Cl)cc3)cc2OC)C1=O (stereo not shown) [Compound A11, 2-[2-chloro-4-(4-chlorophenyl)-6-methoxyphenyl]-4-prop-2-ynylcyclopentane-1,3-dione] | 40 | 100 | 80 | 100 | 100 | 100 | 70 | 100 | 100 | 100 | 20 | 70 | 30 | 70 | 0 | 20 | 60 | 90 | – | – | –
C#CCC1CC(=O)C(c2c(Cl)cc(-c3ccc(F)c(F)c3)cc2OC)C1=O (stereo not shown) [Compound A13] | 80 | 90 | 100 | 100 | 100 | 100 | 90 | 100 | 100 | 100 | 60 | – | 70 | – | 20 | – | 40 | – | 100 | 100 | pest or weed control at 62.5 g/ha [6, 13]: 100%; pest or weed control at 62.5 g/ha [7, 13]: 100%; plant injury at 125 g/ha [8]: 70%; plant injury at 125 g/ha [9]: 80%; plant injury at 125 g/ha [10]: 30%; plant injury at 125 g/ha [11]: 80%
C#CCC1CC(=O)C(c2c(Cl)cc(-c3ccc(Cl)cn3)cc2OC)C1=O (stereo not shown) [Compound A10] | 60 | 100 | 100 | 100 | 100 | 100 | 90 | 100 | 100 | 100 | 60 | 80 | 80 | 80 | 40 | 70 | 70 | 80 | 100 | 100 | pest or weed control at 62.5 g/ha [6, 13]: 100%; pest or weed control at 62.5 g/ha [7, 13]: 100%
C#CCC1CC(=O)C(c2c(C)cc(-c3ncc(Cl)cc3F)cc2C)C1=O (stereo not shown) [Compound A3] | 20 | 100 | 60 | 100 | 100 | 100 | – | 100 | – | 100 | 40 | 70 | 40 | 70 | 20 | 70 | 80 | 90 | 100 | 100 | pest or weed control at 62.5 g/ha [6, 12]: 100%; pest or weed control at 62.5 g/ha [6, 13]: 100%; pest or weed control at 62.5 g/ha [7, 12]: 100%; pest or weed control at 62.5 g/ha [7, 13]: 100%
C#CCC1CC(=O)C(c2c(Cl)cc(-c3ccc(F)cc3)cc2OC)C1=O (stereo not shown) [Compound A7] | 0 | 90 | 70 | 100 | 100 | 100 | 70 | 100 | 100 | 100 | 20 | 70 | 60 | 80 | 0 | 20 | 50 | 90 | – | – | –
C#CCC1CC(=O)C(c2c(F)cc(-c3ccc(Cl)cc3)cc2OC)C1=O (stereo not shown) [Compound A14] | 20 | 100 | 90 | 100 | 100 | 100 | – | 90 | – | 100 | – | – | – | – | – | – | – | – | 90 | 100 | pest or weed control at 62.5 g/ha [6, 12]: 70%; pest or weed control at 62.5 g/ha [7, 12]: 100%; plant injury at 125 g/ha [8]: 10%; plant injury at 125 g/ha [9]: 0%; plant injury at 125 g/ha [10]: 0%; plant injury at 125 g/ha [11]: 40%
